Measured values reported in the supplement of paper PMC10307832.

What was measured:
Experiment in all cases: relative viability (nuclei count vs DMSO), 5 days (fraction); higher = more cells survive
CUDC-101 + Foretinib = compound: C#Cc1cccc(Nc2ncnc3cc(OC)c(OCCCCCCC(=O)NO)cc23)c1 [CUDC-101] + COc1cc2c(Oc3ccc(NC(=O)C4(C(=O)Nc5ccc(F)cc5)CC4)cc3F)ccnc2cc1OCCCN1CCOCC1 [Foretinib] (partner 0.25 µM)
How it was run: (§1)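 A single step with final 0.05% Triton X-100, 1% formaldehyde and 1 ug/ml Hoechst fixed the cells and stained nuclei 5 days after treatment. Lung cancer cell lines in 1536-well plates had been treated by pin tool the day after seeding with one drug alone or a fixed anchor-drug dose plus five library-drug doses (not always all listed) in √10 steps, and nuclei were counted on 4× images. Relative viability is the ratio of nuclei in treated wells to nuclei in vehicle wells, taken as the median of duplicate plates.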

Vandetanib + Foretinib = compound: COc1cc2/c(=N/c3ccc(Br)cc3F)nc[nH]c2cc1OCC1CCN(C)CC1 [Vandetanib] + COc1cc2c(Oc3ccc(NC(=O)C4(C(=O)Nc5ccc(F)cc5)CC4)cc3F)ccnc2cc1OCCCN1CCOCC1 [Foretinib] (partner 0.25 µM)
How it was run: as §1

[1] = compound: C1=CC=C2C(=C1)N=C(S2)C(C#N)C3=NC(=NC=C3)NCCC4=CN=CC=C4 + O=C(c1cc(Cc2n[nH]c(=O)c3ccccc23)ccc1F)N1CCN(C(=O)C2CC2)CC1 [Olaparib] (partner 8 µM)
How it was run: as §1

CUDC-101 + AZD7762 = compound: C#Cc1cccc(Nc2ncnc3cc(OC)c(OCCCCCCC(=O)NO)cc23)c1 [CUDC-101] + NC(=O)Nc1cc(-c2cccc(F)c2)sc1C(=O)N[C@H]1CCCNC1 [AZD7762] (partner 0.2 µM)
How it was run: as §1

Cell Line | relative viability (CUDC-101 + Foretinib; first compound 0.01 µM) | relative viability (CUDC-101 + Foretinib; first compound 0.03162 µM) | relative viability (CUDC-101 + Foretinib; first compound 0.1 µM) | relative viability (CUDC-101 + Foretinib; first compound 0.3162 µM) | relative viability (CUDC-101 + Foretinib; first compound 1 µM) | relative viability (Vandetanib + Foretinib; first compound 0.02 µM) | relative viability (Vandetanib + Foretinib; first compound 0.06325 µM) | relative viability (Vandetanib + Foretinib; first compound 0.2 µM) | relative viability (Vandetanib + Foretinib; first compound 0.6325 µM) | relative viability (Vandetanib + Foretinib; first compound 2 µM) | relative viability ([1]; first compound 0.005 µM) | relative viability ([1]; first compound 0.01581 µM) | relative viability ([1]; first compound 0.05 µM) | relative viability ([1]; first compound 0.1581 µM) | relative viability ([1]; first compound 0.5 µM) | relative viability (CUDC-101 + AZD7762; first compound 0.01 µM) | relative viability (CUDC-101 + AZD7762; first compound 0.03162 µM) | relative viability (CUDC-101 + AZD7762; first compound 0.1 µM) | relative viability (CUDC-101 + AZD7762; first compound 0.3162 µM) | relative viability (CUDC-101 + AZD7762; first compound 1 µM)
201T | 1.11 | 0.835 | 1.03 | 1.28 | 0.936 | 1.08 | 0.996 | 1.06 | 1.15 | 1 | 0.829 | 0.837 | 0.802 | 0.905 | 0.706 | 0.617 | 0.646 | 0.613 | 0.614 | 0.39
A549 | 0.985 | 1 | 0.907 | 1.02 | 0.769 | 1.05 | 0.961 | 0.992 | 0.987 | 0.854 | 0.488 | 0.236 | 0.321 | 0.409 | 0.232 |  |  |  |  | 
A-427 | 1.01 | 0.975 | 1.01 | 1.06 | 0.877 | 1.03 | 1.05 | 1.1 | 0.977 | 1.05 | 0.699 | 0.694 | 0.698 | 0.856 | 0.718 | 0.675 | 0.701 | 0.625 | 0.483 | 0.258
ABC-1 | 1.04 | 0.797 | 1.07 | 0.704 | 0.519 | 0.971 | 1.03 | 0.28 | 1 | 0.854 | 0.731 |  | 0.803 | 0.825 | 0.936 | 0.889 | 0.807 | 0.763 | 0.852 | 0.334
BEN | 0.822 | 0.547 | 0.804 | 0.581 | 0.648 | 0.601 | 0.517 | 0.499 | 0.61 | 0.62 | 0.976 | 1.21 | 1.03 | 1.05 | 0.853 | 0.68 | 0.735 | 0.703 | 0.684 | 0.645
CAL-12T | 1.11 | 1.06 | 1.18 | 1.16 | 1.16 | 1.13 | 1.05 | 0.217 | 1.31 | 0.552 | 0.712 | 0.658 | 0.739 | 0.866 | 0.648 | 0.668 | 0.567 | 0.617 | 0.536 | 0.601
COR-L23 | 1.12 | 0.947 | 0.924 | 0.96 | 0.494 | 0.968 | 1.01 | 0.942 | 0.923 | 0.995 | 0.318 | 0.327 | 0.355 | 0.373 | 0.306 |  |  |  |  | 
COR-L 105 | 0.941 | 0.987 | 0.951 | 0.793 | 0.527 | 0.91 | 1.11 | 0.329 | 0.533 | 0.358 | 0.544 | 0.602 | 0.602 | 0.578 | 0.551 |  |  |  |  | 
Calu-6 | 0.932 | 0.857 | 0.878 | 0.823 | 0.714 | 0.809 | 0.86 | 0.902 | 0.853 | 0.856 | 0.602 | 0.619 | 0.52 | 0.644 | 0.505 |  |  |  |  | 
ChaGo-K-1 | 0.916 | 0.875 | 0.945 | 0.894 | 0.709 | 0.958 | 0.962 | 0.939 | 0.936 | 0.905 | 0.372 | 0.425 | 0.408 | 0.421 | 0.402 | 0.92 | 0.913 | 0.937 | 0.841 | 0.732
EBC-1 | 0.0994 | 0.109 | 0.109 | 0.0873 | 0.0665 | 0.0974 | 0.0982 | 0.108 | 0.0939 | 0.0987 | 0.784 | 0.757 | 0.656 | 0.629 | 0.574 |  |  |  |  | 
EKVX | 0.976 | 0.639 | 0.681 | 1.18 | 0.859 | 0.821 | 0.695 | 0.795 | 0.794 | 1.17 | 1 | 0.865 | 0.797 | 0.689 | 0.673 | 0.84 | 0.68 | 0.656 | 0.771 | 0.563
EMC-BAC-2 | 1.12 | 0.982 | 0.954 | 1.03 | 0.56 | 0.996 | 0.934 | 0.307 | 0.965 | 0.958 | 0.512 | 0.481 | 0.469 | 0.476 | 0.427 | 1.08 | 1.09 | 1.06 | 0.947 | 0.443
EPLC-272H | 0.664 | 0.723 | 0.646 | 0.341 | 0.585 | 0.592 |  | 0.708 | 0.708 | 0.474 |  | 0.803 | 0.733 | 0.825 | 0.517 | 0.187 | 0.139 | 0.175 | 0.109 | 0.115
H3255 | 0.864 | 0.917 |  | 0.486 | 0.279 | 0.904 | 0.824 | 0.858 | 0.689 | 0.345 | 0.55 | 0.594 | 0.603 | 0.575 | 0.534 | 1.01 | 0.721 | 0.546 | 0.556 | 0.259
HARA | 0.903 | 0.78 | 0.853 | 0.611 | 0.285 | 0.889 | 0.753 | 0.36 | 0.89 | 0.735 | 0.773 | 0.659 | 0.942 | 0.822 | 0.954 | 0.31 | 0.507 |  | 0.24 | 0.131
HCC-15 | 1.09 | 0.993 | 0.966 | 1.09 | 0.933 | 1.05 | 0.96 | 0.577 | 1.04 | 0.973 | 0.663 | 0.727 | 0.662 | 0.837 | 0.686 | 1.3 | 1.08 | 1.2 | 1.15 | 1.18
HCC-44 |  |  |  |  |  |  |  |  |  |  | 0.994 | 1 | 0.987 | 1.01 | 0.968 | 1.04 | 1.01 | 1.05 | 0.981 | 1.06
